Test results as given in US7589123B2, “Chemical compounds” (Phytopharm PLC, priority 2006, dated 2009).
Counter-ions that a name gives are not always drawn.

Legend:
[1] = tested on: α-smooth muscle actin (α-SMA) mRNA; assay: Anti-remodelling activity in human lung fibroblasts (HFL1): TGFβ-induced α-SMA mRNA (Assay 4); assay type: cell-based; conditions: Homo sapiens, HFL1 cells, TGFβ 10 ng/ml, 24 h, read-out: Inhibition of α-SMA mRNA synthesis (%)
Description: A human foetal lung fibroblast cell line (HFL1 cells; ATCC accession number CCl-153) was used in this assay. The cells were cultured in medium containing a low level of foetal bovine serum (FBS; 0.1%) for 24 h. After 24 h of culturing the medium was changed to: (a) Control medium (medium containing 10% FBS, 1% phosphate saline and 0.5 mM L-glutamine), (b) Control medium and transforming growth factor beta (TGFβ; 10 ng/ml), (c) Control medium and TGFβ and test compounds (3 and 30 μM). The medium was collected after 24 h and the total mRNA extracted in Tri-reagent. The level of mRNA coding for α-smooth muscle actin (α-SMA) was assessed by real-time reverse transcription-polymerase chain reaction (rtRT-PCR) using primer couples that allow the amplification of α-SMA mRNA. Liver glyceraldehydes 3-phosphate dehydrogenase (GADPH) was used as a reference marker in this experiment. The inhibition of the TGTβ-induced overexpression of α-SMA mRNA by the test compounds was quantified.

[2] = tested on: IL-1α-induced PGE2 release; assay: IL-1α-induced PGE2 release in human diploid lung fibroblasts (WI-38) (Assay 5); assay type: cell-based; conditions: Homo sapiens, WI-38 cells, IL-1α 1 nM, overnight
Description: (§1) Human diploid lung fibroblasts (WI-38 cells) were incubated overnight in the presence of IL-1α (1 nM) and test compound (3 and 30 μM) in modified Eagle medium at pH 7.3 containing foetal bovine serum (10%) at 37° C. The supernatant was assayed by radioimmunoassay for released PGE2 and the inhibition of PGE2 by test compound calculated (Table 10). The viability of the cells was then assessed by washing with Roswell Park Memorial Institute medium and adding Alamar Blue reagent before being incubated at 37° C. for 4 h. Living cells take up Alamar Blue and emit fluorescence when excited. Fluorescence intensity was measured using a SpectroFluor Plus plate reader with excitation at 530 nm and emission at 590 nm (Table 10).

WI-38 cells = assay: Viability of WI-38 cells, Alamar Blue (Assay 5); assay type: cell-based, human
Description: as §1

TRPV1 receptor = TRPV1 receptor (Rattus norvegicus, UniProt O35433); assay: TRPV1 modulation in DRG neurones: CGRP release in absence and presence of capsaicin (Assay 2); assay type: cell-based; parameters: The culture used for this experiment contained sensory neurones, Schwann cells and fibroblasts; endogenous in cells; host or cells: primary rat DRG sensory neurone culture (with Schwann cells and fibroblasts); conditions: 20 min; for inhibition at 3 µM: 3 μM with capsaicin 1 μM; for Emax at 3 µM: test compound alone 3 μM; for Emax at 3 µM / Emax at 30 µM: rat DRG sensory neurones, read-out: CGRP release (% of capsaicin (1 μM) response); for Emax at 30 µM: test compound alone 30 μM
5-lipoxygenase = molecular target: T1, 5-lipoxygenase (Homo sapiens, UniProt P09917); assay: 5-lipoxygenase activity (LTB4) in human peripheral blood mononuclear leukocytes (Assay 6); assay type: cell-based; conditions: human PBMLs, A23187 30 μM, read-out: Inhibition of 5-LO (%)
T1 construct: endogenous in cells; host or cells: human peripheral blood mononuclear leukocytes (PBMLs)
T1 sequence (P09917 1-674): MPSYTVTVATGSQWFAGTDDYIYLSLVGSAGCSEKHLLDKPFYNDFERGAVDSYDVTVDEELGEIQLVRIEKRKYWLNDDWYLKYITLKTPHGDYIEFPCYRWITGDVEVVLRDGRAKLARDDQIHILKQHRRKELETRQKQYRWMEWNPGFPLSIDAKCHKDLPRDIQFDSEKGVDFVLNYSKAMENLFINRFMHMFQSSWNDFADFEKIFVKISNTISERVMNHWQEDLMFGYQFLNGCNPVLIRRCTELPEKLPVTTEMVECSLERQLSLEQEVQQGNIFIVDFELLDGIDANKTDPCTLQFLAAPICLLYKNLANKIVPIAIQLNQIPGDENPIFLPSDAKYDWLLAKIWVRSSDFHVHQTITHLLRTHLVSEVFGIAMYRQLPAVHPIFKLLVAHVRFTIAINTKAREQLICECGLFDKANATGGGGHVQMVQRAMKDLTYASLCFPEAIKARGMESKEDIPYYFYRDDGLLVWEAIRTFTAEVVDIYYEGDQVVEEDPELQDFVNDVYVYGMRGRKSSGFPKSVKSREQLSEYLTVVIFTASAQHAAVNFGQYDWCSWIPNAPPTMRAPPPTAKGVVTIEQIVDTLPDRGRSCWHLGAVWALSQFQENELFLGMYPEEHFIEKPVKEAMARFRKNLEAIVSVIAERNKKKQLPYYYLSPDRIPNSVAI
Description: Human peripheral blood mononuclear leukocytes (PBMLs) were isolated using a Ficoll-Paque density gradient. Human peripheral blood mononuclear leukocytes (5×10^6 cells) were incubated with A23187 (30 μM), a divalent cation ionophore used to initiate the biosynthesis of […], and with vehicle (0.1% DMSO) or test compound (3 and 30 μM) in Hank's balanced salt solution (HBBS) buffer, pH 7.4 at 37° C. for 15 min. The PBML solution was neutralized with NaOH (1 N) and centrifuged at 1000 g for 10 min and the supernatant collected. The concentration of leukotriene B4 (LTB4) in the supernatant was measured using an enzyme immunoassay kit (Assay Design Inc.). A reduction in the concentration of LTB4 indicated an inhibition of the enzyme 5-lipoxygenase (Table 11).

[3] = tested on: 5-HT-induced contractions in guinea pig ileum; assay: Inhibition of 5-HT-induced contractions in guinea pig ileum (Assay 3); conditions: Cavia porcellus, 5-HT 2.6 μM, read-out: Inhibition of 5-HT-induced contraction (%)
Description: (§2) Duncan Hartley derived male guinea pigs (325±25 g) were suppressed by CO2 overexposure, the abdominal cavity was exposed and ileal segments were removed. Small strips of ileum were suspended in organ baths containing Krebs solution (composition in g/l: NaCl 6.89, KCl 0.35, CaCl2 0.277, KH2PO4 0.163, MgSO4.7H2O 0.296, NaHCO3 2.1 glucose 1.8). The solution was kept at 32° C. and gassed with O2 (95%)-CO2 (5%) to maintain pH at 7.4. Mechanical activity was recorded by means of isotonic transducers. A resting tension of 1 g was applied to muscle strips before being equilibrated for 1 h, prior to test compound addition. Each preparation was washed twice at 15 min intervals during the equilibration.
(§3) Histamine (1.7 μM; approximately EC60-70) or 5-hydroxytryptamine (5-HT, 2.6 μM; approximately EC60-70) was applied for 5 min and the amplitude of the contraction recorded. The histamine or 5-HT was then washed out until the ileal tissue returned to baseline. Five min after returning to baseline test compound (3 and 30 μM) was applied and the amplitude of the contraction (if any) was recorded. In the continuous presence of test compound, histamine or 5-HT was re-applied and the inhibition of the response was recorded.

[4] = tested on: histamine-induced contractions in guinea pig ileum; assay: Inhibition of histamine-induced contractions in guinea pig ileum (Assay 3); conditions: Cavia porcellus, histamine 1.7 μM, read-out: Inhibition of histamine-induced contraction (%)
Description: as §2, §3

[5] = −ve: inhibition, +ve: potentiation of capsaicin response, read-out: Effect of test compounds on capsaicin (1 μM)-induced CGRP release (%)
[6] = 30 μM with capsaicin 1 μM, −ve: inhibition, +ve: potentiation of capsaicin response, read-out: Effect of test compounds on capsaicin (1 μM)-induced CGRP release (%)

TRPV1 receptor, sequence (O35433 whole entry): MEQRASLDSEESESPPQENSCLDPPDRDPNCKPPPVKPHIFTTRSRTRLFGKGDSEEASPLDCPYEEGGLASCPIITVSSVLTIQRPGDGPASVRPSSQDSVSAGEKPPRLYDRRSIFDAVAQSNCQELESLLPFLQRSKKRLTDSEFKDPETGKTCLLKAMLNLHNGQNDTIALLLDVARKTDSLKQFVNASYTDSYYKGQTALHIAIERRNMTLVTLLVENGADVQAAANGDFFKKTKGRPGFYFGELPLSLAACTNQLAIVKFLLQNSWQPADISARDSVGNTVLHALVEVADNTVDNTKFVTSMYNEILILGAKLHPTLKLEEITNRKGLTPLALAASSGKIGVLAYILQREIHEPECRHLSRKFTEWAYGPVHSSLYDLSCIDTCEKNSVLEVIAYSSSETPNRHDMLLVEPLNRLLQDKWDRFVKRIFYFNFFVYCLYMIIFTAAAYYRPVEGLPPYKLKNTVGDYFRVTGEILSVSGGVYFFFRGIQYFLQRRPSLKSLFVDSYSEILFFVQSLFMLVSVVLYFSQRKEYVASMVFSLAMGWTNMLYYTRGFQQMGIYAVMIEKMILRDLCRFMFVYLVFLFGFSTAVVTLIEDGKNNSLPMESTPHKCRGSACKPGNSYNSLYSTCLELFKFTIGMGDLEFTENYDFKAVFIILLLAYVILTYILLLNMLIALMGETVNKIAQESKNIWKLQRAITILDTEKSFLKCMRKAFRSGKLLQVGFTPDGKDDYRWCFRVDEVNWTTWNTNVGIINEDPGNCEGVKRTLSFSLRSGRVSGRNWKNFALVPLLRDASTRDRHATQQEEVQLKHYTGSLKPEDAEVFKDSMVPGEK

Row | SMILES | inhibition at 3 µM [1] | inhibition at 30 µM [1] | inhibition at 3 µM [2] | inhibition at 30 µM [2] | Decrease in cell viability (%) (WI-38 cells; 3 μM) | Decrease in cell viability (%) (WI-38 cells; 30 μM) | inhibition at 3 µM (TRPV1 receptor; [5]) | inhibition at 30 µM (TRPV1 receptor; [6]) | Emax at 3 µM (TRPV1 receptor) | Emax at 30 µM (TRPV1 receptor) | inhibition at 3 µM (5-lipoxygenase) | inhibition at 30 µM (5-lipoxygenase) | inhibition at 3 µM [3] | inhibition at 30 µM [3] | inhibition at 3 µM [4] | inhibition at 30 µM [4] | percent change in capsaicin-induced CGRP release (negative = inhibition, positive = potentiation) at 30 µM (TRPV1 receptor; [6])
1 | COc1cc(CCC(=O)CC(=O)c2ccc(C#N)cc2)ccc1O [Compound 82, 1-(4-Cyanophenyl)-5-(4-hydroxy-3-methoxyphenyl)pentane-1,3-dione] | -3% | 39% | 78% | 102% | −4% | 6% | 4% | 27% | 53% | 58% | 48% | 97% | 13% | 83% | 12% | 20% | –
2 | COc1cc(CCC(=O)CC(=O)c2ccc(C)cc2)ccc1O [Compound 80, 5-(4-Hydroxy-3-methoxyphenyl)-1-p-tolylpentane-1,3-dione] | 4% | 29% | 72% | 102% | 2% | 1% | 44% | -24% | 68% | 118% | 61% | 97% | 14% | 68% | 2% | 62% | –
3 | COc1cc(CCC(=O)CC(=O)c2ccc(C(C)(C)C)cc2)ccc1O [Compound 83, 1-(4-tert-Butylphenyl)-5-(4-hydroxy-3-methoxyphenyl)pentane-1,3-dione] | -2% | 86% | 86% | 102% | 4% | 31% | 11% | – | 66% | 144% | 52% | 99% | 4% | 11% | 16% | 17% | 0%
4 | COc1cc(CCC(=O)CC(=O)Cc2ccccc2)ccc1O [Compound 28, 6-(4-Hydroxy-3-methoxyphenyl)-1-phenyl-hexane-2,4-dione] | 12% | 47% | 87% | 99% | 1% | 6% | 51% | -29% | 29% | 107% | 35% | 98% | 6% | 85% | 7% | 18% | –
5 | COc1cc(CCC(=O)C(C)C(=O)C(C)(C)C)ccc1O (stereo not drawn) [Compound 4, 1-(4-Hydroxy-3-methoxyphenyl)-4,6,6-trimethyl-heptane-3,5-dione] | -3% | 17% | 49% | 96% | −3% | 10% | -58% | -24% | 36% | 63% | 15% | 73% | 0% | 10% | 7% | 14% | –
6 | COc1cc(CCC(=O)CC(=O)c2ccccc2)ccc1OCCN [Compound 87, 5-(4-(2-aminoethoxy)-3-methoxyphenyl)-1-phenylpentane-1,3-dione hydrochloride] | – | – | -28% | -62% | – | – | – | – | – | – | -6% | 19% | 15% | 93% | 0% | 58% | –
7 | COc1cc(CCC(=O)C(C)(C)C(=O)C2(C)CC2)ccc1O [Compound 70, 5-(4-Hydroxy-3-methoxyphenyl)-2,2-dimethyl-1-(1-methylcyclopropyl)pentane-1,3-dione] | – | – | 42% | 86% | 0% | 5% | – | – | – | – | -1% | 63% | 2% | 46% | 4% | 29% | –
8 | COc1cc(CCC(=O)CC(=O)c2ccc3ccccc3c2)c(Cl)cc1O [Compound 86, 5-(2-Chloro-4-hydroxy-5-methoxyphenyl)-1-(naphthalene-3-yl)pentane-1,3-dione] | – | – | 42% | 100% | 7% | 37% | – | – | – | – | 52% | 98% | 4% | 19% | 0% | 9% | –
